Data published in ChEMBL document CHEMBL4813981, “Synthesis and in vitro antibacterial activity of new aminothiazole-oximepiperidone cephalosporins” (2021).
In brackets after ≈: the same amount, converted by molar mass.

Assays:
Enterococcus faecalis = assay: Antibacterial activity against Enterococcus faecalis ATCC 51299 assessed as reduction in bacterial growth; format: functional
Escherichia coli [1] = assay: Antibacterial activity against Escherichia coli ATCC 35218 assessed as reduction in bacterial growth; format: functional
Escherichia coli [2] = assay: Antibacterial activity against Escherichia coli NCTC 13353 assessed as reduction in bacterial growth; format: functional
Escherichia coli [3] = assay: Antibacterial activity against Escherichia coli 15-3 overexpressing extended spectrum beta-lactamases assessed as reduction in bacterial growth; format: functional
Acinetobacter baumannii [4] = assay: Antibacterial activity against Multidrug resistant Acinetobacter baumannii AR 15-4 assessed as reduction in bacterial growth; format: functional
Acinetobacter baumannii [5] = assay: Antibacterial activity against Multidrug resistant Acinetobacter baumannii AR 15-3 assessed as reduction in bacterial growth in the presence of Avibactam; format: functional
Acinetobacter baumannii [6] = assay: Antibacterial activity against Carbapenem- resistant Acinetobacter baumannii 17-3 assessed as reduction in bacterial growth; format: functional
Acinetobacter baumannii [7] = assay: Antibacterial activity against Carbapenem- resistant Acinetobacter baumannii 17-6 assessed as reduction in bacterial growth; format: functional
Acinetobacter baumannii [8] = assay: Antibacterial activity against Carbapenem- resistant Acinetobacter baumannii 17-9 assessed as reduction in bacterial growth; format: functional
Acinetobacter baumannii [9] = assay: Antibacterial activity against Carbapenem- resistant Acinetobacter baumannii 17-10 assessed as reduction in bacterial growth; format: functional
Acinetobacter baumannii [10] = assay: Antibacterial activity against Carbapenem- resistant Acinetobacter baumannii 17-11 assessed as reduction in bacterial growth; format: functional
Acinetobacter baumannii [11] = assay: Antibacterial activity against Carbapenem- resistant Acinetobacter baumannii 17-13 assessed as reduction in bacterial growth; format: functional
Klebsiella pneumoniae [12] = assay: Antibacterial activity against Carbapenem- resistant Klebsiella pneumoniae KR 15-4 assessed as reduction in bacterial growth; format: functional
Klebsiella pneumoniae [13] = assay: Antibacterial activity against Carbapenem- resistant Klebsiella pneumoniae KR 15-7 assessed as reduction in bacterial growth; format: functional
Klebsiella pneumoniae [14] = assay: Antibacterial activity against Carbapenem- resistant Klebsiella pneumoniae KR 15-8 assessed as reduction in bacterial growth; format: functional
Klebsiella pneumoniae [15] = assay: Antibacterial activity against Carbapenem- resistant Klebsiella pneumoniae KR 15-12 assessed as reduction in bacterial growth; format: functional
Klebsiella pneumoniae [16] = assay: Antibacterial activity against Carbapenem- resistant Klebsiella pneumoniae KR 15-13 assessed as reduction in bacterial growth; format: functional
Pseudomonas aeruginosa [17] = assay: Antibacterial activity against Carbapenem- resistant Pseudomonas aeruginosa 17-1 assessed as reduction in bacterial growth; format: functional
Klebsiella pneumoniae [18] = assay: Antibacterial activity against Carbapenem- sensitive Klebsiella pneumoniae 17-1 overexpressing extended spectrum beta-lactamases assessed as reduction in bacterial growth; format: functional
Klebsiella pneumoniae [19] = assay: Antibacterial activity against Carbapenem- sensitive Klebsiella pneumoniae 17-2 overexpressing extended spectrum beta-lactamases assessed as reduction in bacterial growth; format: functional
Klebsiella pneumoniae [20] = assay: Antibacterial activity against Carbapenem- sensitive Klebsiella pneumoniae 17-6 overexpressing extended spectrum beta-lactamases assessed as reduction in bacterial growth; format: functional
Klebsiella pneumoniae [21] = assay: Antibacterial activity against Carbapenem- sensitive Klebsiella pneumoniae 17-9 overexpressing extended spectrum beta-lactamases assessed as reduction in bacterial growth; format: functional
Klebsiella pneumoniae [22] = assay: Antibacterial activity against Carbapenem- sensitive Klebsiella pneumoniae 17-13 overexpressing extended spectrum beta-lactamases assessed as reduction in bacterial growth; format: functional
Klebsiella pneumoniae [23] = assay: Antibacterial activity against Carbapenem- sensitive Klebsiella pneumoniae 17-15 overexpressing extended spectrum beta-lactamases assessed as reduction in bacterial growth; format: functional
Klebsiella pneumoniae [24] = assay: Antibacterial activity against ESBLs negative Carbapenem-sensitive Klebsiella pneumoniae 17-17 assessed as reduction in bacterial growth; format: functional
Klebsiella pneumoniae [25] = assay: Antibacterial activity against ESBLs negative Carbapenem-sensitive Klebsiella pneumoniae 17-20 assessed as reduction in bacterial growth; format: functional
Escherichia coli [26] = assay: Antibacterial activity against ESBLs positive Carbapenem-sensitive Escherichia coli 17-5 assessed as reduction in bacterial growth; format: functional
Escherichia coli [27] = assay: Antibacterial activity against ESBLs positive Carbapenem-sensitive Escherichia coli 17-6 assessed as reduction in bacterial growth; format: functional
Escherichia coli [28] = assay: Antibacterial activity against ESBLs positive Carbapenem-sensitive Escherichia coli 17-10 assessed as reduction in bacterial growth; format: functional
Escherichia coli [29] = assay: Antibacterial activity against ESBLs positive Carbapenem-sensitive Escherichia coli 17-12 assessed as reduction in bacterial growth; format: functional
Escherichia coli [30] = assay: Antibacterial activity against ESBLs positive Carbapenem-sensitive Escherichia coli 17-15 assessed as reduction in bacterial growth; format: functional
Escherichia coli [31] = assay: Antibacterial activity against ESBLs positive Carbapenem-sensitive Escherichia coli 17-17 assessed as reduction in bacterial growth; format: functional
Escherichia coli [32] = assay: Antibacterial activity against ESBLs negative Carbapenem-sensitive Escherichia coli 17-7 assessed as reduction in bacterial growth; format: functional
Enterobacter cloacae [33] = assay: Antibacterial activity against Enterobacter cloacae 17-1 assessed as reduction in bacterial growth; format: functional
Enterobacter cloacae [34] = assay: Antibacterial activity against Enterobacter cloacae 17-3 assessed as reduction in bacterial growth; format: functional
Enterobacter cloacae [35] = assay: Antibacterial activity against Enterobacter cloacae 17-4 assessed as reduction in bacterial growth; format: functional
Klebsiella aerogenes [36] = assay: Antibacterial activity against Enterobacter aerogenes 17-2 assessed as reduction in bacterial growth; format: functional
Klebsiella aerogenes [37] = assay: Antibacterial activity against Enterobacter aerogenes 17-5 assessed as reduction in bacterial growth; format: functional
Klebsiella aerogenes [38] = assay: Antibacterial activity against Enterobacter aerogenes 15-3 assessed as reduction in bacterial growth; format: functional
Klebsiella aerogenes [39] = assay: Antibacterial activity against Enterobacter aerogenes 15-6 assessed as reduction in bacterial growth; format: functional
Pseudomonas aeruginosa [40] = assay: Antibacterial activity against Carbapenem- sensitive Pseudomonas aeruginosa 17-7 assessed as reduction in bacterial growth; format: functional
Pseudomonas aeruginosa [41] = assay: Antibacterial activity against Carbapenem- sensitive Pseudomonas aeruginosa 17-22 assessed as reduction in bacterial growth; format: functional
Klebsiella pneumoniae [42] = assay: Antibacterial activity against ESBLs positive Carbapenem-sensitive Klebsiella pneumoniae 17-8 assessed as reduction in bacterial growth in the presence of Avibactam; format: functional
Klebsiella pneumoniae [43] = assay: Antibacterial activity against ESBLs negative Carbapenem-sensitive Klebsiella pneumoniae 17-17 assessed as reduction in bacterial growth in the presence of Avibactam; format: functional
Escherichia coli [44] = assay: Antibacterial activity against ESBLs positive Carbapenem-sensitive Escherichia coli 17-6 assessed as reduction in bacterial growth in the presence of Avibactam; format: functional
Escherichia coli [45] = assay: Antibacterial activity against ESBLs positive Carbapenem-sensitive Escherichia coli 17-11 assessed as reduction in bacterial growth in the presence of Avibactam; format: functional
Escherichia coli [46] = assay: Antibacterial activity against ESBLs positive Carbapenem-sensitive Escherichia coli 17-15 assessed as reduction in bacterial growth in the presence of Avibactam; format: functional
Pseudomonas aeruginosa [47] = assay: Bactericidal activity against Carbapenem- resistant Pseudomonas aeruginosa 17-8 assessed as reduction in bacterial growth in the presence of avibactam; format: functional
Klebsiella pneumoniae [48] = assay: Bactericidal activity against ESBLs positive Carbapenem-sensitive Klebsiella pneumoniae 17-12 assessed as reduction in bacterial growth in the presence of avibactam; format: functional
Klebsiella aerogenes [49] = assay: Bactericidal activity against Enterobacter aerogenes 17-3 assessed as reduction in bacterial growth in the presence of avibactam; format: functional
Pseudomonas aeruginosa [50] = assay: Bactericidal activity against carbapenem-sensitive Pseudomonas aeruginosa 17-9 assessed as reduction in bacterial growth in the presence of avibactam; format: functional
Acinetobacter baumannii [51] = assay: Antibacterial activity against Carbapenem- resistant Acinetobacter baumannii 17-2 assessed as reduction in bacterial growth

CC(C)(O/N=C(\C(=O)N[C@@H]1C(=O)N2C(C(=O)[O-])=C(C[n+]3ccccc3)CS[C@H]12)c1csc(N)n1)C(=O)O [CEFTAZIDIME]
MIC (Enterococcus faecalis): > 64 µg/mL | MIC (Escherichia coli [1]): 0.06 µg/mL (≈ 0.11 µM) | MIC (Escherichia coli [2]): 64 µg/mL (≈ 117 µM) | MIC (Escherichia coli [3]): 8 µg/mL (≈ 14.6 µM) | MIC (Acinetobacter baumannii [4]): > 64 µg/mL | MIC (Acinetobacter baumannii [5]): 16 µg/mL | MIC (Acinetobacter baumannii [6]): > 64 µg/mL | MIC (Acinetobacter baumannii [7]): > 64 µg/mL | MIC (Acinetobacter baumannii [8]): > 64 µg/mL | MIC (Acinetobacter baumannii [9]): 32 µg/mL (≈ 58.5 µM) | MIC (Acinetobacter baumannii [10]): 32 µg/mL (≈ 58.5 µM) | MIC (Acinetobacter baumannii [11]): > 64 µg/mL | MIC (Klebsiella pneumoniae [12]): > 64 µg/mL | MIC (Klebsiella pneumoniae [13]): > 64 µg/mL | MIC (Klebsiella pneumoniae [14]): > 64 µg/mL | MIC (Klebsiella pneumoniae [15]): 64 µg/mL (≈ 117 µM) | MIC (Klebsiella pneumoniae [16]): 64 µg/mL (≈ 117 µM) | MIC (Pseudomonas aeruginosa [17]): 32 µg/mL (≈ 58.5 µM) | MIC (Klebsiella pneumoniae [18]): 64 µg/mL (≈ 117 µM) | MIC (Klebsiella pneumoniae [19]): 2 µg/mL (≈ 3.66 µM) | MIC (Klebsiella pneumoniae [20]): 8 µg/mL (≈ 14.6 µM) | MIC (Klebsiella pneumoniae [21]): 64 µg/mL (≈ 117 µM) | MIC (Klebsiella pneumoniae [22]): 4 µg/mL (≈ 7.32 µM) | MIC (Klebsiella pneumoniae [23]): 32 µg/mL (≈ 58.5 µM) | MIC (Klebsiella pneumoniae [24]): 0.125 µg/mL (≈ 0.229 µM) | MIC (Klebsiella pneumoniae [25]): 0.125 µg/mL (≈ 0.229 µM) | MIC (Escherichia coli [26]): 4 µg/mL (≈ 7.32 µM) | MIC (Escherichia coli [27]): 32 µg/mL (≈ 58.5 µM) | MIC (Escherichia coli [28]): 4 µg/mL (≈ 7.32 µM) | MIC (Escherichia coli [29]): 8 µg/mL (≈ 14.6 µM) | MIC (Escherichia coli [30]): 64 µg/mL (≈ 117 µM) | MIC (Escherichia coli [31]): 32 µg/mL (≈ 58.5 µM) | MIC (Escherichia coli [32]): 0.125 µg/mL (≈ 0.229 µM) | MIC (Enterobacter cloacae [33]): 0.5 µg/mL (≈ 0.915 µM) | MIC (Enterobacter cloacae [34]): 1 µg/mL (≈ 1.83 µM) | MIC (Enterobacter cloacae [35]): 0.5 µg/mL (≈ 0.915 µM) | MIC (Klebsiella aerogenes [36]): 16 µg/mL (≈ 29.3 µM) | MIC (Klebsiella aerogenes [37]): 16 µg/mL (≈ 29.3 µM) | MIC (Klebsiella aerogenes [38]): > 64 µg/mL | MIC (Klebsiella aerogenes [39]): 8 µg/mL (≈ 14.6 µM) | MIC (Pseudomonas aeruginosa [40]): 0.125 µg/mL (≈ 0.229 µM) | MIC (Pseudomonas aeruginosa [41]): 0.5 µg/mL (≈ 0.915 µM) | MIC (Klebsiella pneumoniae [42]): 2 µg/mL | MIC (Klebsiella pneumoniae [43]): 0.125 µg/mL | MIC (Escherichia coli [44]): 0.5 µg/mL | MIC (Escherichia coli [45]): 0.5 µg/mL | MIC (Escherichia coli [46]): 0.5 µg/mL | MBC (Pseudomonas aeruginosa [47]): 16 µg/mL | MBC (Klebsiella pneumoniae [48]): 1 µg/mL | MBC (Klebsiella aerogenes [49]): 0.25 µg/mL | MBC (Pseudomonas aeruginosa [50]): 0.25 µg/mL | MIC (Acinetobacter baumannii [51]): > 64 µg/mL
